Test results as given in patent publication US8721963B2, “Cold sterilization of tissue engineering scaffolds with compressed carbon dioxide” (University of South Carolina, priority 2010, dated 2014).

Tests used:
B. pumilus spores = settings: 40° C., 27.58 MPa, 4 hours; cited from earlier work
[1] = system: Escherichia coli (E. coli) (ATCC 15597); assay: Inactivation of E. coli embedded in model hydrogel by SC-CO2 treatment (plate counting); assay type: cell-based; settings: 27.6 MPa, 40° C., 4 hours
Method: Staphylococcus aureus (S. aureus) (ATCC 25923) and Escherichia coli (E. coli) (ATCC 15597) were used as test microorganisms embedded in the hydrogel to investigate the bacteriocidal activity of pure SC-CO2 or SC-CO2+H2O2. Suspensions of S. aureus and E. coli were prepared for inoculation of the hydrogel. Cultures of these bacteria were preserved on DifcoTM […] soy agar and stored in Petri dishes inside of a refrigerator at 4° C. A fresh colony was transferred aseptically from the agar culture plate into a culture tube containing 30 g/L of sterile tryptone soy broth (TSB). The bacteria were grown to a logarithmic phase in the TSB at 35° C. for 24 hours (Cappuccino and Sherman 2001). A fresh bacterial culture was prepared before every experiment to ensure cell viability. […] A Petroff Hausser counting chamber was used to quantify the cfu count in the diluted samples. […] A pulverization procedure was followed to quantify the amount of bacteria in the inoculated hydrogel. […] The degree of killing was quantified with a standard plate counting technique. The log reduction of bacteria (S. aureus or E. coli) was calculated with equation (1), [formula] For use as negative controls, a quantified amount of inoculated hydrogel (with either S. aureus or E. coli) in a polyallomer centrifuge tube was immersed in a PolyScience laboratory temperature bath (model 9105) at 40° C. for 4 hours. […]

[2] = system: G. stearothermophilus spores; settings: 40° C., 27.58 MPa, 4 hours; cited from earlier work
[3] = system: Staphylococcus aureus (S. aureus) (ATCC 25923); assay: Inactivation of S. aureus embedded in model hydrogel by SC-CO2 treatment (plate counting); assay type: cell-based; settings: 27.6 MPa, 40° C.
Method: Staphylococcus aureus (S. aureus) (ATCC 25923) and Escherichia coli (E. coli) (ATCC 15597) were used as test microorganisms embedded in the hydrogel to investigate the bacteriocidal activity of pure SC-CO2 or SC-CO2+H2O2. Suspensions of S. aureus and E. coli were prepared for inoculation of the hydrogel. Cultures of these bacteria were preserved on DifcoTM […] soy agar and stored in Petri dishes inside of a refrigerator at 4° C. A fresh colony was transferred aseptically from the agar culture plate into a culture tube containing 30 g/L of sterile tryptone soy broth (TSB). The bacteria were grown to a logarithmic phase in the TSB at 35° C. for 24 hours (Cappuccino and Sherman 2001). A fresh bacterial culture was prepared before every experiment to ensure cell viability. Both S. aureus and E. coli bacteria suspensions were diluted after incubation to a concentration of approximately 107 colony forming units per milliliter (cfu/mL). A Petroff Hausser counting chamber was used to quantify the cfu count in the diluted samples. Also, a standard plate counting technique was followed to verify the original number of cfu. The final number of S. aureus or E. coli generally ranged from 7.6×106 to 2.3×10^8 cfu/mL. The hydrogel was hydrated with the diluted bacteria suspension of either S. aureus or E. coli. For CO2 sterilization experiments, the model gel was hydrated with the diluted bacteria suspension. Typically, 0.1 g of dry powder (absorption capacity of 200 mL H2O/g) was hydrated with steam autoclaved DI water. The hydrated powder was left overnight inside of a refrigerator at 4° C. About 3 g of the completely incorporated hydrated gel were then transferred into a polyallomer centrifuge tube for the CO2 treatment, to be described subsequently. […] A pulverization procedure was followed to quantify the amount of bacteria in the inoculated hydrogel. Bacteria were dislodged from the gel by pulverizing in a Stomacher 400 Circulator (Seward Ltd., United Kingdom) for 10 minutes at 230 revolutions per minute (rpm). The degree of killing was quantified with a standard plate counting technique. The log reduction of bacteria (S. aureus or E. coli) was calculated with equation (1), [formula] For use as negative controls, a quantified amount of inoculated hydrogel (with either S. aureus or E. coli) in a polyallomer centrifuge tube was immersed in a PolyScience laboratory temperature bath (model 9105) at 40° C. for 4 hours. The inoculated hydrogel was removed from the bath, pulverized in the Stomacher 400, and the degree of killing was quantified using the standard plate counting technique.

B. atrophaeus spores = settings: 40° C., 27.58 MPa, 4 hours; cited from earlier work

## O=C=O [pure SC-CO2, carbon dioxide]
B. pumilus spores
  log reduction of B. pumilus spores: 6 log
[1]; in hydrogel
  killing of E. coli: Complete killing
[1]; in poly(acrylic acid-co-acrylamide) hydrogel
  average log-reduction of E. coli: 7.93 log
[2]
  log reduction of G. stearothermophilus spores: 6 log
[3]; in hydrogel, 4 hours
  killing of S. aureus: Complete killing
[3]; in hydrogel
  D-value (D40) of S. aureus: 4.6 min
  time required to obtain 6-log reduction of S. aureus: about 27.4 minutes
[3]; in hydrogel, 10 minutes
  log-reduction of S. aureus: 1.94 log
[3]; in hydrogel, 15 minutes
  log-reduction of S. aureus: 3.42 log
[3]; in hydrogel, 20 minutes
  log-reduction of S. aureus: 4.13 log
[3]; in hydrogel, 30 minutes
  killing of S. aureus: complete kill
[3]; in hydrogel, 60 minutes
  killing of S. aureus: complete kill
[3]; in poly(acrylic acid-co-acrylamide) hydrogel, 4 hours
  average log-reduction of S. aureus: 7.72 log
B. atrophaeus spores
  log reduction of B. atrophaeus spores: 6 log
